Holding throughout (assay): NCI anticancer screen, dose series, 48 h
Assay [1] relates to IGROV1 ovarian.
The subject of assay [2] is UACC-257 melanoma.
The subject of assay [3] is SN12C renal.
Assay [4] has as its system HT29 colon.
Assay [5] relates to U251 CNS.
The subject of assay [6] is NCI-H226 lung.
In assay [7] the test system is SF-268 CNS.
In assay [8] the test system is MALME-3M melanoma.
The subject of assay [9] is LOX IMVI melanoma.
Assay [10] concerns HL-60(TB) leukemia.
The test system of assay [11] is SF-539 CNS.

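Compound exposure: 48 hours, 5 concentrations, 96-well plates. At the GI50, growth is halved. TGI is the concentration that stops growth completely.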

Consider `O=C(COc1ccc(OCC(=O)N2C(=O)CC(=O)N(c3ccc(Cl)cc3)C2=S)cc1)N1C(=O)CC(=O)N(c2ccc(Cl)cc2)C1=S`, for which the TGI in [1] was above 100 µM; in [2] it was above 100 µM; in [3], above 100 µM; in assay [4], above 100 µM; in assay [5] it was above 100 µM; in assay [6] it was 85.7 µM. Also, the TGI in [7] is above 100 µM; in [8], 93.5 µM.
For `COC(C/C(=C/CO[Si](C(C)C)(C(C)C)C(C)C)C(=O)N(COCC[Si](C)(C)C)c1ccccc1I)OC`, the TGI is 27.4 µM in assay [1]; 69.9 µM in assay [2]; above 100 µM in assay [3]; above 100 µM in assay [4]; 37.8 µM in assay [9]; 94.8 µM in [5]. For the same molecule, the TGI in assay [6] is above 100 µM.
On to `Cc1c(CNc2ccc(C(=O)NC(CCCNC(=O)c3ccccc3C(=O)O)C(=O)O)cc2)cnc2nc(N)nc(N)c12` (stereo not given), for which the TGI was above 100 µM in assay [10]; above 100 µM in assay [2]; above 100 µM in [3]; above 100 µM in [5]; 2.91 µM in assay [6]. Besides, the GI50 is above 100 µM in [2], 0.00285 µM in assay [5], 0.00248 µM in [6] and 0.00161 µM in assay [7].
Consider `NCCCN(CCCCN(CCCN)C(=O)OCc1ccccc1)C(=O)OCc1ccccc1`, for which the TGI in assay [1], in assay [10], in assay [2], in assay [3], in assay [4] and in assay [9] was above 100 µM in each case. The TGI in assay [5], in assay [6], in assay [7] and in [11] was above 100 µM each time.
As for `Nc1cc2c(c3ccccc13)C(CCl)CN2C(=O)c1cc2cc(NC(=O)Nc3ccc4[nH]c(C(=O)N5CC(CCl)c6c5cc(N)c5ccccc65)cc4c3)ccc2[nH]1` (stereo not given), the TGI in assay [1] is 1.4 µM; in [2], 3.24 µM; in assay [3], above 100 µM; in assay [4], 2.01 µM; in assay [9], 12 µM; in [6] it was 1.81 µM. Besides, the figures for the TGI in assay [7], in [11] and in assay [8] were 8.15 µM, 1.11 µM and 2.03 µM, respectively.
`COc1ccc(C2C3=C(N=C4SC(C(C)=O)=C(C)N42)c2ccccc2CC3)cc1` (stereo not given): the TGI in assay [1] was above 100 µM; in assay [10] it was 58 µM; in assay [2], above 100 µM; in assay [3], above 100 µM; in assay [4], above 100 µM; in assay [9], above 100 µM. The TGI in [5], in assay [6], in [7] and in [11] was above 100 µM in each case.
As to `CC(C)(C)OC(=O)NC12C3C4C1C1C2C3C41NC(=O)OC(C)(C)C` (stereo not given), the TGI in [1] is above 100 µM; in [10], 53.9 µM; in [2], above 100 µM; in assay [3], above 100 µM; in assay [4] it was above 100 µM; in assay [9], above 100 µM. Further, the TGI in assay [5] is above 100 µM; in [7] it was above 100 µM; in assay [11], 93.9 µM.
Regarding `Cc1cccc2c(N)c3cccc(C(=O)NCC[N+](C)(C)Cc4ccc([N+](=O)[O-])s4)c3nc12`, the TGI was 26 µM in [1]; above 78 µM in assay [2]; 49 µM in [3]; 23.6 µM in [4]; 18.6 µM in assay [9]; above 100 µM in assay [5]. Also, the TGI in assay [6] is 21.9 µM; in [7], 36.9 µM; in [11] it was 23.9 µM; in assay [8] it was 25 µM.
With `COc1ccc(-n2c(=O)c3[nH]c(=S)[nH]c3n(-c3ccc(OC)cc3)c2=S)cc1`, the TGI in [1], in assay [10], in [2], in assay [3], in [4] and in [9] was above 100 µM each time. Moreover, the TGI in [5], in [6], in assay [7] and in assay [11] was above 100 µM throughout.
For `CC1=NN(c2cccc(Cl)c2)C2(C1=Cc1ccc(O)cc1)C(Cl)C(=O)N2c1nc2ccccc2s1` (stereo not given), the TGI is 65.9 µM in assay [1]; above 100 µM in assay [10]; above 100 µM in assay [2]; 63.3 µM in assay [4]; 47.5 µM in assay [9]; 49.2 µM in assay [5]. Further, the TGI in assay [6] is above 100 µM; in assay [7] it was 86 µM; in assay [11], above 100 µM.
On to `CC(C(=O)OCc1ccccc1)N(Cc1ccccc1)Cc1ccccc1` (stereo not given), for which the TGI was above 100 µM in assay [1]; 79.2 µM in [10]; above 100 µM in assay [2]; above 100 µM in assay [3]; above 100 µM in assay [4]; above 100 µM in assay [5]. Besides, the TGI in assay [7], in [11] and in assay [8] was above 100 µM throughout.
Take `CCCC[C@@H](C)/C=C1\CN2CCC[C@H]2[C@@](C)(OCc2ccccc2)[C@@H]1O`: the TGI in assay [1] is above 50 µM; in assay [2], above 46.1 µM; in [3] it was above 50 µM; in [4] it was above 50 µM; in [9], above 50 µM; in [5], above 50 µM. Besides, the TGI in [6] is above 50 µM; in assay [7], above 50 µM; in assay [11] it was 49.7 µM; in [8], above 50 µM.
Turning to `O=C1COc2cc(N3CCN(c4cccc(C(F)(F)F)c4)CC3)ccc2N1`, the TGI in assay [1], in assay [10], in assay [2], in assay [3], in [4] and in assay [9] was above 100 µM throughout. For the same molecule, the TGI in assay [5], in assay [6], in assay [7] and in [11] was above 100 µM each time.

The values are drawn from PubChem BioAssay (NCI).
